Measured values as given in US11130769B2 (Prelude Therapeutics Incorporated, priority 2018, dated 2021).
Like-named read-outs stand apart in the source and are kept apart here.

Experiments:
MCL-1 = MCL-1 (Homo sapiens (Human), UniProt Q07820); assay: Cell free Mcl-1:Bim affinity assay (fluorescence polarization competition); format: binding; settings: 15 nM MCL-1, 5 nM FITC-Bim, 1 hour at room temperature, read-out: BIM_Ki
Procedure, shortened: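 Fluorescence polarization competition: 10-point 3-fold compound dilutions displaced 5 nM FITC-Bim from 15 nM MCL-1 over 1 h at room temperature. Ki was derived from the fitted IC50 using the Nikolovska-Coleska equation, with percent inhibition normalized to DMSO and positive controls.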

H929 cells = assay: Cell viability assay (H929 10 FBS); format: cell-based; settings: read-out: H929_10FBS IC50
Procedure, shortened: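 ATP-based luminescence (CellTiter-Glo or ATPlite 1 Step, 30-60 min at RT) gauged viability of H929 myeloma cells after 24 h compound treatment at 37 °C. Cells plated at 4000 per well in 10% FBS RPMI 1640 supplemented with pyruvate, HEPES and glucose.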

[1] = Homo sapiens, NCI-H929, 24 hours

Chain of MCL-1 (Q07820 whole entry): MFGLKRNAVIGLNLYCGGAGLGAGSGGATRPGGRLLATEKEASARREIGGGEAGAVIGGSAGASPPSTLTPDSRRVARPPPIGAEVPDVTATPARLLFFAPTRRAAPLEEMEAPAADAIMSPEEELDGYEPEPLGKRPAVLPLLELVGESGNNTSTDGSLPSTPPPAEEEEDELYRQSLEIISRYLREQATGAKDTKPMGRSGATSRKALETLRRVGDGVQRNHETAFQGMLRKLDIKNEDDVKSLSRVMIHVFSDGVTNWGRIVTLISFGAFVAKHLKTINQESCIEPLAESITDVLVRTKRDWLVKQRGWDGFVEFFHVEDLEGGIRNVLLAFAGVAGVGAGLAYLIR

Compound: CNCCN(C)C(=O)O[C@H]1/C=C/COC(C)(C)C(=O)NS(=O)(=O)c2ccc3c(c2)N(C[C@@H]2CC[C@H]21)C[C@@]1(CCCc2cc(Cl)ccc21)CO3 [Example 194, [(3R,6R,7S,8E,22S)-6′-Chloro-12,12-dimethyl-13,15,15-trioxo-spiro[11,20-dioxa-15-thia-1,14-diazatetracyclo[14.7.2.03,6.019,24]pentacosa-8,16,18,24-tetraene-22,1′-tetralin]-7-yl] N-methyl-N-[2-(methylamino)ethyl]carbamate]
- Ki (MCL-1; class symbols): < 1 nM
- IC50 (H929 cells; [1]): < 500 nM

Compound: (4′Z,5′E)-6-Chloro-3,4-dihydro-2H-spiro[naphthalene-1,3′-13-thia-12-aza-1(5,7)-benzo[b][1,4]oxazepina-3(4,1)-pyrazolacyclotridecaphanen]-5′-en-11′-one 13′,13′-dioxide and (4′Z,5′Z)-6-chloro-3,4-dihydro-2H-spiro[naphthalene-1,3′-13-thia-12-aza-1(5,7)-benzo[b][1,4]oxazepina-3(4,1)-pyrazolacyclotridecaphanen]-5′-en-11′-one 13′,13′-dioxide [Example 11]
- Ki (MCL-1; numeric values): 503 nM
- IC50 (H929 cells; 24 hours): > 1000 nM

Compound: CN[C@@H]1CCN(C(=O)O[C@H]2/C=C/COC(C)(C)C(=O)NS(=O)(=O)c3ccc4c(c3)N(C[C@@H]3CC[C@H]32)C[C@@]2(CCCc3cc(Cl)ccc32)CO4)C1 [Example 164, [(3R,6R,7S,8E,22S)-6′-Chloro-12,12-dimethyl-13,15,15-trioxo-spiro[11,20-dioxa-15-thia-1,14-diazatetracyclo[14.7.2.03,6.019,24]pentacosa-8,16,18,24-tetraene-22,1′-tetralin]-7-yl] (3R)-3-(methylamino)pyrrolidine-1-carboxylate]
- Ki (MCL-1; class symbols): < 1 nM
- IC50 (H929 cells; [1]): < 500 nM

Compound: CCN1C/C=C/[C@@H](OC)[C@@H]2CC[C@H]2CN2C[C@@]3(CCCc4cc(Cl)ccc43)COc3ccc(cc32)S(=O)(=O)NC(=O)[C@H]1C [Example 132, (3R,6R,7R,8E,12R,22S)-6′-Chloro-7-methoxy-11-ethyl-12-methyl-15,15-dioxo-spiro[20-oxa-15-thia-1,11,14-triazatetracyclo[14.7.2.03,6.019,24]pentacosa-8,16(25),17,19(24)-tetraene-22,1′-tetralin]-13-one]
- Ki (MCL-1; class symbols): 1 to 100 nM
- IC50 (H929 cells; [1]): < 500 nM

Compound: CO[C@H]1/C=C/CCC(=O)NS(=O)(=O)c2ccc3c(c2)N(C[C@@H]2CC[C@H]21)C[C@@]1(CCCc2cc(Cl)ccc21)CO3 [Example 75, (3R,6R,7S,8E,21S)-6′-Chloro-7-methoxy-14,14-dioxo-spiro[19-oxa-14-thia-1,13-diazatetracyclo[13.7.2.0˜3,6.0˜18,23]tetracosa-8,15,17,23-tetraene-21,1′-tetralin]-12-one]
- Ki (MCL-1; class symbols): 1 to 100 nM
- IC50 (H929 cells; [1]): > 1000 nM

Compound: O=C1Cc2cccc(c2)SC[C@@H]2CCC2CN2CC3(CCCc4cc(Cl)ccc43)COc3ccc(cc32)S(=O)(=O)N1 (stereo partly drawn) [Example 25, (1S,1′R,2′R)-6-Chloro-3,4-dihydro-2H-spiro[naphthalene-1,3′-5,10-dithia-9-aza-1(5,7)-benzo[b][1,4]oxazepina-6(1,3)-benzena-3(1,2)-cyclobutanacyclodecaphan]-8′-one 10′,10′-dioxide]
- Ki (MCL-1; numeric values): 9 nM
- IC50 (H929 cells; [1]): > 1000 nM

Compound: CCN1C/C=C/[C@H](OC(=O)N2CCC(OC)CC2)[C@@H]2CC[C@H]2CN2C[C@@]3(CCCc4cc(Cl)ccc43)COc3ccc(cc32)S(=O)(=O)NC(=O)C1(C)C [Example 222, [(3R,6R,7S,8E,22S)-6′-Chloro-11-ethyl-12,12-dimethyl-13,15,15-trioxo-spiro[20-oxa-15-thia-1,11,14-triazatetracyclo[14.7.2.03,6.019,24]pentacosa-8,16,18,24-tetraene-22,1′-tetralin]-7-yl] 4-methoxypiperidine-1-carboxylate]
- Ki (MCL-1; class symbols): < 1 nM
- IC50 (H929 cells; [1]): < 500 nM

Compound: CN1C/C=C/[C@H](OCCN2CCCCC2)[C@@H]2CC[C@H]2CN2C[C@@]3(CCCc4cc(Cl)ccc43)COc3ccc(cc32)S(=O)(=O)NC(=O)C1(C)C [Example 289, (3R,6R,7S,8E,22S)-6′-Chloro-11,12,12-trimethyl-15,15-dioxo-7-[2-(1-piperidyl)ethoxy]spiro[20-oxa-15-thia-1,11,14-triazatetracyclo[14.7.2.03,6.019,24]pentacosa-8,16,18,24-tetraene-22,1′-tetralin]-13-one]
- Ki (MCL-1; class symbols): 1 to 100 nM
- IC50 (H929 cells; [1]): > 1000 nM

Compound: CO[C@H]1/C=C/CC[C@H](C)C(=O)NS(=O)(=O)c2ccc3c(c2)N(C[C@@H]2CC[C@H]21)C[C@@]1(CCCc2cc(Cl)ccc21)CO3 [Example 85, (3R,6R,7S,8E,12S,22S)-6′-Chloro-7-methoxy-12-methyl-15,15-dioxo-spiro[20-oxa-15-thia-1,14-diazatetracyclo[14.7.2.03,6.019,24]pentacosa-8,16(25),17,19(24)-tetraene-22,1′-tetralin]-13-one]
- Ki (MCL-1; class symbols): 1 to 100 nM
- IC50 (H929 cells; [1]): > 1000 nM

Compound: CC1(C)OC/C=C/[C@H](OC(=O)N2CCC2)[C@@H]2CC[C@H]2CN2C[C@@]3(CCCc4cc(Cl)ccc43)COc3ccc(cc32)S(=O)(=O)NC1=O [Example 174, [(3R,6R,7S,8E,22S)-6′-Chloro-12,12-dimethyl-13,15,15-trioxo-spiro[11,20-dioxa-15-thia-1,14-diazatetracyclo[14.7.2.03,6.019,24]pentacosa-8,16,18,24-tetraene-22,1′-tetralin]-7-yl] azetidine-1-carboxylate]
- Ki (MCL-1; class symbols): < 1 nM
- IC50 (H929 cells; [1]): < 500 nM

Compound: CN(C)CCN(C)C(=O)O[C@H]1/C=C/COC(C)(C)C(=O)NS(=O)(=O)c2ccc3c(c2)N(C[C@@H]2CC[C@H]21)C[C@@]1(CCCc2cc(Cl)ccc21)CO3 [Example 55, [(3R,6R,7S,8E,22S)-6′-Chloro-12,12-dimethyl-13,15,15-trioxo-spiro[11,20-dioxa-15-thia-1,14-diazatetracyclo[14.7.2.0˜3,6.0˜19,24]pentacosa-8,16,18,24-tetraene-22,1′-tetralin]-7-yl] N-[2-(dimethylamino)ethyl]-N-methyl-carbamate]
- Ki (MCL-1; class symbols): < 1 nM
- IC50 (H929 cells; [1]): < 500 nM

Compound: CC1(C)OC/C=C/[C@@H](OCCN2CCOCC2)[C@@H]2CC[C@H]2CN2C[C@@]3(CCCc4cc(Cl)ccc43)COc3ccc(cc32)S(=O)(=O)NC1=O [Example 271, (3R,6R,7R,8E,22S)-6′-Chloro-12,12-dimethyl-7-(2-morpholinoethoxy)-15,15-dioxo-spiro[11,20-dioxa-15-thia-1,14-diazatetracyclo[14.7.2.03,6.019,24]pentacosa-8,16,18,24-tetraene-22,1′-tetralin]-13-one]
- Ki (MCL-1; class symbols): < 1 nM
- IC50 (H929 cells; [1]): < 500 nM

Compound: CO[C@@H]1/C=C/CNC2(CC2)C(=O)NS(=O)(=O)c2ccc3c(c2)N(C[C@@H]2CC[C@H]21)C[C@@]1(CCCc2cc(Cl)ccc21)CO3 [Example 119, (3R,6R,7R,8E,22S)-6′-Chloro-7-methoxy-12,12-ethylene-15,15-dioxo-spiro[20-oxa-15-thia-1,11,14-triazatetracyclo[14.7.2.03,6.019,24]pentacosa[8,16(25),17,19(24)]tetraene-22,1′-tetralin]-13-one]
- Ki (MCL-1; class symbols): 1 to 100 nM
- IC50 (H929 cells; [1]): < 1000 nM

Compound: CO[C@@H]1/C=C/CCCCC(=O)NS(=O)(=O)c2ccc3c(c2)N(C[C@@H]2CC[C@H]21)C[C@@]1(CCCc2cc(Cl)ccc21)CO3 [Example 73, (3R,6R,7R,8E,23S)-6′-Chloro-7-methoxy-16,16-dioxo-spiro[21-oxa-16-thia-1,15-diazatetracyclo[15.7.2.03,6.020,25]hexacosa-8,17,19,25-tetraene-23,1′-tetralin]-14-one]
- Ki (MCL-1; class symbols): 1 to 100 nM
- IC50 (H929 cells; [1]): > 1000 nM

Compound: CO[C@@H]1CCN(CCO[C@H]2/C=C/COC(C)(C)C(=O)NS(=O)(=O)c3ccc4c(c3)N(C[C@@H]3CC[C@H]32)C[C@@]2(CCCc3cc(Cl)ccc32)CO4)C1 [Example 260, (3R,6R,7S,8E,22S)-6′-Chloro-7-[2-[(3R)-3-methoxypyrrolidin-1-yl]ethoxy]-12,12-dimethyl-15,15-dioxo-spiro[11,20-dioxa-15-thia-1,14-diazatetracyclo[14.7.2.03,6.019,24]pentacosa-8,16,18,24-tetraene-22,1′-tetralin]-13-one]
- Ki (MCL-1; class symbols): < 1 nM
- IC50 (H929 cells; [1]): < 500 nM

Compound: COCCOC[C@@H]1CC/C=C/[C@@H](OC)[C@@H]2CC[C@H]2CN2C[C@@]3(CCCc4cc(Cl)ccc43)COc3ccc(cc32)S(=O)(=O)NC1=O [Example 97, (3R,6R,7R,8E,12S,22S)-6′-Chloro-12-((2-methoxyethoxy)methyl)-7-methoxy-15,15-dioxo-spiro[20-oxa-15-thia-1,14-diazatetracyclo[14.7.2.03,6.019,24]pentacosa-8,16,18,24-tetraene-22,1′-tetralin]-13-one]
- Ki (MCL-1; class symbols): < 1 nM
- IC50 (H929 cells; [1]): > 1000 nM

Compound: CN(C(=O)O[C@H]1/C=C/CN(C)C2(CCC2)C(=O)NS(=O)(=O)c2ccc3c(c2)N(C[C@@H]2CC[C@H]21)C[C@@]1(CCCc2cc(Cl)ccc21)CO3)C1COC1 [Example 240, [(3R,6R,7S,8E,22S)-6′-Chloro-11-methyl-12,12-(1,3-propylene)-13,15,15-trioxo-spiro[20-oxa-15-thia-1,14-triazatetracyclo[14.7.2.03,6.019,24]pentacosa-8,16,18,24-tetraene-22,1′-tetralin]-7-yl] N-methyl-N-(oxetan-3-yl)carbamate]
- Ki (MCL-1; class symbols): < 1 nM
- IC50 (H929 cells; [1]): < 500 nM

Compound: COC[C@H]1C(=O)NS(=O)(=O)c2ccc3c(c2)N(C[C@@H]2CC[C@H]2[C@H](O)/C=C/C[C@@H]1C)C[C@@]1(CCCc2cc(Cl)ccc21)CO3 [Example 88, (3R,6R,7R,8E,11S,12S,22S)-6′-Chloro-7-hydroxy-12-(methoxymethyl)-11-methyl-15,15-dioxo-spiro[20-oxa-15-thia-1,14-diazatetracyclo[14.7.2.03,6.019,24]pentacosa-8,16,18,24-tetraene-22,1′-tetralin]-13-one]
- Ki (MCL-1; class symbols): < 1 nM
- IC50 (H929 cells; [1]): < 1000 nM
